Each block holds one compound with its values, some of them ahead of it. The source made the active and inactive calls. The rule behind the calls is not given here.
How the values were obtained:
SUP-B15 [1] = assay: Induction of apoptosis in human SUP-B15 cells assessed as decrease in cell viability at 5 uM after 24 hrs by Annexin V/propidium iodide staining-based flow cytometric analysis; assay type: functional
MV4-11 = assay: Antiproliferative activity against human MV411 assessed as reduction in cell viability after 72 hrs by CellTiter-Glo assay; assay type: functional, cell-based; conditions: MV4-11, 72 h
SUP-B15 [2] = assay: Induction of apoptosis in human SUP-B15 cells assessed as decrease in cell viability at […] after 24 hrs by ApoTox-Glo triplex assay; assay type: functional, cell-based
[3] = Half life in mouse microsomes; assay type: ADME, Microsome
UoC-B1 = assay: Antiproliferative activity against human UOCB1 assessed as reduction in cell viability after 72 hrs by CellTiter-Glo assay; assay type: functional, cell-based; conditions: UoC-B1, 72 h
SUP-B15 [4] = assay: Induction of apoptosis in human SUP-B15 cells assessed as late apoptotic cells level after 24 hrs by Annexin V and propidium iodide staining based flow cytometry (reference value: 13.5%); assay type: functional
MDA-MB-231 [5] = assay: Cytotoxicity against human MDA-MB-231 cells at 30 uM after 24 hrs by propidium iodide staining-based fluorescence assay; assay type: functional, cell-based
B-ALL [6] = assay: Induction of apoptosis in mouse B-ALL BCR-ABL double knockout cells assessed as increase in caspase 3/7 activity after 24 hrs by caspase-Glo 3/7 reagent based luminescence assay; assay type: functional, cell-based
KOPN-8 [7] = assay: Cell cycle arrest in human KOPN8 cells assessed as increase in accumulation of cells at S phase at 5 uM after 24 hrs by propidium iodide staining-based flow cytometric analysis; assay type: functional
NALM-6 = assay: Antiproliferative activity against human NALM6 assessed as reduction in cell viability after 72 hrs by CellTiter-Glo assay; assay type: functional, cell-based; conditions: NALM-6, 72 h
[8] = Intrinsic clearance in human microsomes; assay type: ADME, Microsome
SUP-B15 [9] = assay: Induction of apoptosis in human SUP-B15 cells assessed as increase in caspase 3/7 activity after 24 hrs by caspase-Glo 3/7 reagent based luminescence assay; assay type: functional, cell-based
[10] = Permeability of compound at pH 7.4 by PAMPA; assay type: ADME; conditions: read-out: Peff
SUP-B15 [11] = assay: Cytotoxicity in human SUP-B15 cells assessed as decrease in cell viability after 24 hrs by bis-AAF-RF110 dye based assay; assay type: functional
B-ALL [12] = assay: Antiproliferative activity against mouse B-ALL cells expressing wild type BCR-ABL assessed as reduction in cell viability after 72 hrs by CellTiter-Glo assay; assay type: functional, cell-based
[13] = Half life in human microsomes; assay type: ADME, Microsome
[14] = Half life in human plasma; assay type: ADME, cell-free
[15] = Intrinsic clearance in mouse microsomes; assay type: ADME, Microsome
MDA-MB-231 [16] = assay: Cytotoxicity against human MDA-MB-231 cells up to 30 uM after 24 hrs by propidium iodide staining-based fluorescence assay; assay type: functional, cell-based
SUP-B15 [17] = assay: Cell cycle arrest in human SUP-B15 cells assessed as accumulation of cells at G1/G0 phase at 5 uM after 24 hrs by propidium iodide staining-based flow cytometric analysis; assay type: functional
[18] = Half life in simulated gastric fluid; assay type: ADME
SUM149PT = assay: Cytotoxicity against human SUM149 cells at 100 uM after 24 hrs by propidium iodide staining-based fluorescence assay relative to control; assay type: functional
KOPN-8 [19] = assay: Induction of apoptosis in human KOPN8 cells assessed as late apoptotic cells level after 24 hrs by Annexin V and propidium iodide staining based flow cytometry (reference value: 2%); assay type: functional
SUP-B15 [20] = assay: Cell cycle arrest in human SUP-B15 cells assessed as accumulation of cells at G2/M phase at 5 uM after 24 hrs by propidium iodide staining-based flow cytometric analysis; assay type: functional
KOPN-8 [21] = assay: Antiproliferative activity against human KOPN8 assessed as reduction in cell viability after 72 hrs by CellTiter-Glo assay; assay type: functional, cell-based; conditions: KOPN-8, 72 h
SUP-B15 [22] = assay: Induction of apoptosis in human SUP-B15 cells assessed as late apoptotic cells level after 24 hrs by Annexin V and propidium iodide staining based flow cytometry (reference value: 83%); assay type: functional
KOPN-8 [23] = assay: Cell cycle arrest in human KOPN8 cells assessed as accumulation of cells at G1/G0 phase at 5 uM after 24 hrs by propidium iodide staining-based flow cytometric analysis relative to control; assay type: functional
SUP-B15 [24] = assay: Antiproliferative activity against human SUP-B15 assessed as reduction in cell viability after 72 hrs by CellTiter-Glo assay; assay type: functional, cell-based; conditions: SUP-B15, 72 h
[25] = Apparent permeability of compound form apical to basolateral side in human Caco2 cells; assay type: ADME, cell-based; conditions: Caco-2
B-ALL [26] = assay: Antiproliferative activity against mouse B-ALL BCR-ABL double knockout cells assessed as reduction in cell viability after 72 hrs by CellTiter-Glo assay; assay type: functional, cell-based
BJ = assay: Antiproliferative activity against human BJ assessed as cell viability after 72 hrs by CellTiter-Glo assay; assay type: functional, cell-based
[27] = Efflux ratio of apparent permeability across basolateral to apical side over apical to basolateral side in human Caco2 cells; assay type: ADME, cell-based; conditions: Caco-2
KOPN-8 [28] = assay: Induction of apoptosis in human KOPN8 cells assessed as late apoptotic cells level after 24 hrs by Annexin V and propidium iodide staining based flow cytometry (reference value: 96.4%); assay type: functional
[29] = Therapeutic index, ratio of EC50 for human BJ cells to EC50 for mouse B-ALL cells expressing wild type BCR-ABL; assay type: toxicity; conditions: human BJ cells versus mouse B-ALL cells expressing wild type BCR-ABL; read-out: Ratio EC50
K562 = assay: Antiproliferative activity against human K562 assessed as reduction in cell viability after 72 hrs by CellTiter-Glo assay; assay type: functional, cell-based; conditions: K562, 72 h
KOPN-8 [30] = assay: Cell cycle arrest in human KOPN8 cells assessed as accumulation of cells at G2/M phase at 5 uM after 24 hrs by propidium iodide staining-based flow cytometric analysis relative to control; assay type: functional
[31] = Apparent permeability of compound form basolateral to apical side in human Caco2 cells; assay type: ADME, cell-based; conditions: Caco-2
KOPN-8 [32] = assay: Induction of apoptosis in human KOPN8 cells assessed as decrease in cell viability at 5 uM after 24 hrs by Annexin V/propidium iodide staining-based flow cytometric analysis; assay type: functional
[33] = Protein binding in human plasma; assay type: ADME, cell-free; conditions: read-out: PPB (converted)
[34] = Protein binding in mouse plasma; assay type: ADME, cell-free; conditions: read-out: PPB (converted)
[35] = Half life in mouse plasma; assay type: ADME, cell-free
[36] = Permeability of compound at pH 7.4 assessed as drug retention by PAMPA; assay type: ADME
SUP-B15 [37] = assay: Induction of apoptosis in human SUP-B15 cells assessed as late apoptotic cells level at 2 uM after 24 hrs by Annexin V and propidium iodide staining based flow cytometry (reference value: 83%); assay type: functional
SUP-B15 [38] = assay: Induction of apoptosis in human SUP-B15 cells assessed as late apoptotic cells level at 2 uM after 24 hrs by Annexin V and propidium iodide staining based flow cytometry (reference value: 13.5%); assay type: functional
KOPN-8 [39] = assay: Induction of apoptosis in human KOPN8 cells assessed as late apoptotic cells level at 2 uM after 24 hrs by Annexin V and propidium iodide staining based flow cytometry (reference value: 96.4%); assay type: functional
KOPN-8 [40] = assay: Induction of apoptosis in human KOPN8 cells assessed as late apoptotic cells level at 2 uM after 24 hrs by Annexin V and propidium iodide staining based flow cytometry (reference value: 2%); assay type: functional

EC50 (MV4-11): 3800 nM
half-life [3]: 1.2 h
CLint scaled [8]: 14.5 mL/min/kg
Papp [10]: 617 ×10⁻⁶ cm/s
half-life [13]: 1.44 h
half-life [14]: > 48 h
CLint scaled [15]: 47.5 mL/min/kg
half-life [18]: > 48 h
Papp A→B [25]: 10.6 ×10⁻⁶ cm/s
efflux ratio [27]: 3.5
EC50 (K562): 4600 nM
Papp B→A [31]: 37.2 ×10⁻⁶ cm/s
fraction unbound [33]: 0.042
fraction unbound [34]: 0.023
half-life [35]: > 48 h
permeability [36]: 24.8%
Compound: Cc1ccc(S(=O)(=O)Cc2nc(-c3ccc(C(=O)NCc4cccnc4)cc3)oc2C)cc1
Activity (SUP-B15 [1]): Active
Activity (SUP-B15 [2]): Active
EC50 (UoC-B1): > 55000 nM
Activity (SUP-B15 [4]): 7.6%
Activity (MDA-MB-231 [5]): Active
Activity (B-ALL [6]): inactive
Activity (KOPN-8 [7]): Active
EC50 (NALM-6): 26 nM
Activity (SUP-B15 [9]): Active
Activity (SUP-B15 [11]): Active
EC50 (B-ALL [12]): 72 nM
Activity (MDA-MB-231 [16]): inactive
Activity (SUP-B15 [17]): inactive
Activity (SUM149PT): 50%
Activity (KOPN-8 [19]): 2.9%
Activity (SUP-B15 [20]): inactive
EC50 (KOPN-8 [21]): 1230 nM
Activity (SUP-B15 [22]): 69.9%
Activity (KOPN-8 [23]): 10%
EC50 (SUP-B15 [24]): 1100 nM
EC50 (B-ALL [26]): 61 nM
EC50 (BJ): 2490 nM
Activity (KOPN-8 [28]): 95.8%
selectivity ratio [29]: 34
Activity (KOPN-8 [30]): 12%
Activity (KOPN-8 [32]): Active

Compound: CN[C@@H]1C[C@H]2O[C@@](C)([C@@H]1OC)n1c3ccccc3c3c4c(c5c6ccccc6n2c5c31)C(=O)NC4 [STAUROSPORINE]
Activity (SUP-B15 [37]): 10%
Activity (SUP-B15 [38]): 52.3%
Activity (KOPN-8 [39]): 53.2%
Activity (KOPN-8 [40]): 45.2%
